Test [1] deals with human primary monocyte-derived M2-macrophages. Nature of the test: IL-6 and CXCL-10 induction in monocyte-derived M2-macrophages. Type of test: cell-based. The settings on record: 48 hours.
Test [2] relates to peripheral blood mono nuclear cells (PBMCs). Description: IL-6 in PBMC culture supernatant by ELISA. Type of test: cell-based. The settings on record: 24 hours. The procedure:
To evaluate the efficacy of TLR-7 agonists, Compound 1 (TLR7-TA), Compound 2 (TLR7-1B) and Compound 3 (TLR7-1C) were treated with peripheral blood mono nuclear cells (PBMCs) for 24 hours. TLR7-1 was used as control. Cell culture supernatant was isolated and tested for IL-6 using enzyme-linked immunosorbent assay (ELISA) (FIG. 22).

Turning to `Nc1nc2ncc(CNc3ccc(C(=O)NC(CCC(=O)N[C@@H](CSSCCOC(=O)OCC4CCCN(CCNc5ccc(Cn6c(=O)[nH]c7c(N)nc(C(F)(F)F)cc76)cn5)C4)C(=O)O)C(=O)O)cc3)nc2c(=O)[nH]1` (stereo partly shown) [Compound 3], in test [1], the “CXCL-10 induction compared to parent compound TLR7-1” value was “more efficiently”; the “IL-6 induction compared to parent compound TLR7-1” value is recorded as “more efficiently”; the “macrophage polarization (M1 markers IL-6, CXCL10)” value is on record as “polarize the M2 macrophages to M1 macrophages”. Also, in test [2], the “IL-6 in culture supernatant” value was “increased expression of IL-6”.

(Values after patent US20260284016A1, “COMBINATIONS AND METHODS FOR ENHANCING CHECKPOINT INHIBITOR THERAPIES IN CANCER TREATMENT” (PURDUE RESEARCH FOUNDATION, priority 2004, published 2026).)
